Assay results published in US4826531A (priority 1986, dated 1989).

What was measured:
[1] = system: CERCOSPORA ARACHIDICOLA (PEANUT); assay: foliar fungal disease control test (Table III); assay type: in vivo; conditions: 100 ppm foliar spray plus root drench ca. 40 ppm a.i./dry soil; 1-2 days before inoculation
Description: (§1) The compounds were tested against a variety of foliar fungal diseases of plants. The technique employed was as follows.
(§2) The plants were grown in John Innes Potting Compost (No 1 or 2) in 4 cm diameter minipots. The test compounds were formulated either by bead milling with aqueous Dispersol T or as a solution in acetone or acetone/ethanol which was diluted to the required concentration immediately before use. For the foliage diseases, the formulations (100 ppm active ingredient) were sprayed on to the foliage and applied to the roots of the plants in the soil. The sprays were applied to maximum retention and the root drenches to a final concentration equivalent to approximately 40 ppm a.i./dry soil. Tween 20, to give a final concentration of 0.05%, was added when the sprays were applied to cereals.
(§3) For most of the tests the compound was applied to the soil (roots) and to the foliage (by spraying) one or two days before the plant was inoculated with the disease. An exception was the test on Erysiphe graminis in which the plants were inoculated 24 hours before treatment. Foliar pathogens were applied by spray as spore suspensions onto the leaves of test plants. After inoculation, the plants were put into an appropriate environment to allow infection to proceed and then incubated until the disease was ready for assessment. The period between inoculation and assessment varied from four to fourteen days according to the disease and environment.
(§4) The disease control was recorded by the following grading: […]

[2] = system: ERYSIPHE GRAMINIS (BARLEY); assay: foliar fungal disease control test (Table III); assay type: in vivo; conditions: 100 ppm foliar spray plus root drench ca. 40 ppm a.i./dry soil; inoculated 24 hours before treatment
Description: as §1, §2, §3, §4

[3] = system: PUCCINIA RECONDITA (WHEAT); assay: foliar fungal disease control test (Table III); assay type: in vivo; conditions: 100 ppm foliar spray plus root drench ca. 40 ppm a.i./dry soil; 1-2 days before inoculation
Description: as §1, §2, §3, §4

[4] = system: VENTURIA INAEQUALS (APPLE); assay: foliar fungal disease control test (Table III); assay type: in vivo, Venturia inaequalis; conditions: 100 ppm foliar spray plus root drench ca. 40 ppm a.i./dry soil; 1-2 days before inoculation
Description: as §1, §2, §3, §4

[5] = system: […] (RICE); assay type: in vivo, Pyricularia oryzae; conditions: 100 ppm foliar spray plus root drench ca. 40 ppm a.i./dry soil; 1-2 days before inoculation
[6] = system: […] (VINE); assay: foliar fungal disease control test (Table III); assay type: in vivo, Plasmopara viticola; conditions: 100 ppm foliar spray plus root drench ca. 40 ppm a.i./dry soil; 1-2 days before inoculation
Description: as §1, §2, §3, §4

[7] = system: PH[…] (TOMATO); assay type: in vivo, Phytophthora infestans; conditions: for disease control grading, PH[…] (TOMATO): 100 ppm foliar spray plus root drench ca. 40 ppm a.i./dry soil, 1-2 days before inoculation
[8] = system: Meloidogyne incognita (tomato root-knot eelworm larvae); assay: nematocidal activity
[9] = system: Tomato; assay: whole plant screen for plant growth regulating activity; assay type: in vivo, Tomato (Ailsa Craig)
Description: (§5) These compounds were tested on a whole plant screen for plant growth regulating activity against six species of plant. The plant species used in this screen are presented in Table IV with the leaf stage at which they were sprayed.
(§6) A formulation of each chemical was applied at 4000 ppm (4 kg/ha in a 1000 l/ha field volume) using a tracksprayer and a SS8004E (Teejet) nozzle. Additional tests were done on tomatoes at 2000 and 500 ppm.
(§7) After spraying, the plants were grown in a glasshouse with 25° C. day/22° C. night temperatures. The exceptions to this were the temperate cereals wheat and barley, which were grown in 13°-16° C. day/11°-13° C. night temperatures. Supplementary lighting was supplied when necessary to provide an average photoperiod of 16 hours (14 hours minimum).
(§8) After 2-6 weeks in the glasshouse, depending on species and time of year, the plants were visually asessed for morphological characteristics against a control plant sprayed with a blank formulation.

[10] = system: Diabrotica balteata (root worm larvae); assay: insecticidal activity
[11] = system: Barley; assay: whole plant screen for plant growth regulating activity; assay type: in vivo, Barley (Atem); conditions: 4000 ppm (4 kg/ha), assessed after 2-6 weeks
Description: as §5, §6, §7, §8

In the case of `CO/C=C(/C(=O)OC)c1ncccc1Oc1ccccc1` [Compound 1, (E)-methyl 2-(3'-phenoxypyrid-2'-yl)-3-methoxyacrylate], the “disease control grading, CERCOSPORA ARACHIDICOLA (PEANUT)” value (from here on “disease control grading … (PEANUT)”) [1] is reported as 4, the “disease control grading, ERYSIPHE GRAMINIS (BARLEY)” value (“disease control grading … (BARLEY)” for short) [2] is reported as 3 (trace-5% of disease on untreated plants) and the “disease control grading, PUCCINIA RECONDITA (WHEAT)” value (“disease control grading … (WHEAT)” for short) [3] is reported as 0 (60-100% of disease on untreated plants). For the same compound, the “disease control grading, VENTURIA INAEQUALS (APPLE)” value (from here on “disease control grading … (APPLE)”) [4] was 3 (trace-5% of disease on untreated plants), the “disease control grading, […] (RICE)” value [5] was 0 (60-100% of disease on untreated plants) and the “disease control grading, […] (VINE)” value [6] was 0 (60-100% of disease on untreated plants). For the same compound, the “disease control grading, PH[…] (TOMATO)” value [7] was 0 (60-100% of disease on untreated plants).

`CO/C=C(/C(=O)OC)c1cccnc1Oc1ccccc1` [Compound 15, (E)-methyl-2-(2'-phenoxypyrid-3'-yl)-3-methoxyacrylate] was tested, and the “disease control grading … (PEANUT)” value [1] was 4, the “disease control grading … (BARLEY)” value [2] was 4 and the “disease control grading … (WHEAT)” value [3] was 4. The “disease control grading … (APPLE)” value [4] was 4, the “disease control grading, […] (RICE)” value [5] was 4 and the “disease control grading, […] (VINE)” value [6] was 4. For the same compound, the “disease control grading, PH[…] (TOMATO), root drench only” value ([7]; 100 ppm root drench only) was 4 and the “activity against Meloidogyne incognita” value [8] was “active”.

For `CO/C=C(/C(=O)OC)c1cccnc1Oc1ccc(Cl)cc1` [Compound 16], the “disease control grading … (PEANUT)” value [1] was 4, the “disease control grading … (BARLEY)” value [2] was 4 and the “disease control grading … (WHEAT)” value [3] was 4. For the same compound, the “disease control grading … (APPLE)” value [4] was 4, the “disease control grading, […] (RICE)” value [5] was 4 and the “disease control grading, […] (VINE)” value [6] was 4. For the same compound, the “disease control grading, PH[…] (TOMATO)” value [7] was 3 (trace-5% of disease on untreated plants).

In the case of `CO/C=C(/C(=O)OC)c1cccnc1Oc1ccc(Br)cc1` [Compound 18], the “disease control grading … (PEANUT)” value [1] is reported as 4, the “disease control grading … (BARLEY)” value [2] is reported as 4 and the “disease control grading … (WHEAT)” value [3] is reported as 1 (26-59% of disease on untreated plants). For the same compound, the “disease control grading … (APPLE)” value [4] was 4, the “disease control grading, […] (RICE)” value [5] was 0 (60-100% of disease on untreated plants) and the “disease control grading, […] (VINE)” value [6] was 4. For the same compound, the “disease control grading, PH[…] (TOMATO)” value [7] was 0 (60-100% of disease on untreated plants).

In the case of `CO/C=C(/C(=O)OC)c1cccnc1Oc1ccc(C)cc1` [Compound 19], the “disease control grading … (PEANUT)” value [1] is reported as 4, the “disease control grading … (BARLEY)” value [2] is reported as 4 and the “disease control grading … (WHEAT)” value [3] is reported as 4. The “disease control grading … (APPLE)” value [4] was 4, the “disease control grading, […] (RICE)” value [5] was 4 and the “disease control grading, […] (VINE)” value [6] was 4. For the same compound, the “disease control grading, PH[…] (TOMATO)” value [7] was 0 (60-100% of disease on untreated plants) and the “plant growth regulating effect, TO” value ([9]; 4000 ppm (4 kg/ha), assessed after 2-6 weeks) was 2GAT.

With `CO/C=C(/C(=O)OC)c1cccnc1Oc1ccc(OC)cc1` [Compound 20] the “disease control grading … (PEANUT)” value [1] was 4, the “disease control grading … (BARLEY)” value [2] was 4 and the “disease control grading … (WHEAT)” value [3] was 4. For the same compound, the “disease control grading … (APPLE)” value [4] was 4, the “disease control grading, […] (RICE)” value [5] was 4 and the “disease control grading, […] (VINE)” value [6] was 4. For the same compound, the “disease control grading, PH[…] (TOMATO)” value [7] was 0 (60-100% of disease on untreated plants).

In the case of `CO/C=C(/C(=O)OC)c1cccnc1Oc1ccc(C(F)(F)F)cc1` [Compound 21], the “disease control grading … (PEANUT)” value [1] is reported as 4, the “disease control grading … (BARLEY)” value [2] is reported as 4 and the “disease control grading … (WHEAT)” value [3] is reported as 4. The “disease control grading … (APPLE)” value [4] was 4, the “disease control grading, […] (RICE)” value [5] was 0 (60-100% of disease on untreated plants) and the “disease control grading, […] (VINE)” value [6] was 4. For the same compound, the “disease control grading, PH[…] (TOMATO)” value [7] was 3 (trace-5% of disease on untreated plants).

`CO/C=C(/C(=O)OC)c1cccnc1Oc1cccc(Cl)c1` [Compound 23] was tested, and the “disease control grading … (PEANUT)” value [1] was 4, the “disease control grading … (BARLEY)” value [2] was 4 and the “disease control grading … (WHEAT)” value [3] was 4. For the same compound, the “disease control grading … (APPLE)” value [4] was 4, the “disease control grading, […] (RICE)” value [5] was 4 and the “disease control grading, […] (VINE)” value [6] was 4. The “disease control grading, PH[…] (TOMATO)” value [7] was 4, the “plant growth regulating effect, TO+” value ([9]; 500 ppm) was 2G and the “activity against Diabrotica balteata” value [10] was “active”.

For `CO/C=C(/C(=O)OC)c1ccncc1Oc1ccccc1` [Compound 43, (E)-methyl-2-(3'-phenoxypyrid-4'-yl)-3-methoxyacrylate], the “plant growth regulating effect, BR” value [11] was 2T.

For `CO/C=C(/C(=O)OC)c1cccnc1Oc1cccc(F)c1` [Compound 57], the “disease control grading … (PEANUT)” value [1] was 4, the “disease control grading … (BARLEY)” value [2] was 4 and the “disease control grading … (WHEAT)” value [3] was 4. For the same compound, the “disease control grading … (APPLE)” value [4] was 4, the “disease control grading, […] (RICE)” value [5] was 4 and the “disease control grading, […] (VINE)” value [6] was 4. The “disease control grading, PH[…] (TOMATO)” value [7] was 3 (trace-5% of disease on untreated plants).

With `CO/C=C(/C(=O)OC)c1cccnc1Oc1cccc(C)c1` [Compound 58] the “disease control grading … (PEANUT)” value [1] was 4, the “disease control grading … (BARLEY)” value [2] was 4 and the “disease control grading … (WHEAT)” value [3] was 4. The “disease control grading … (APPLE)” value [4] was 4, the “disease control grading, […] (RICE)” value [5] was 4 and the “disease control grading, […] (VINE)” value [6] was 4. The “disease control grading, PH[…] (TOMATO)” value [7] was 3 (trace-5% of disease on untreated plants).

With `CO/C=C(/C(=O)OC)c1cccnc1Oc1cc(Cl)cc(Cl)c1` [Compound 60] the “disease control grading … (PEANUT)” value [1] was 4, the “disease control grading … (BARLEY)” value [2] was 4 and the “disease control grading … (WHEAT)” value [3] was 4. For the same compound, the “disease control grading … (APPLE)” value [4] was 4, the “disease control grading, […] (RICE)” value [5] was 4 and the “disease control grading, […] (VINE)” value [6] was 4. The “disease control grading, PH[…] (TOMATO)” value [7] was 4.

For `CO/C=C(/C(=O)OC)c1cccnc1OCc1ccccc1` [Compound 66], the “disease control grading … (PEANUT)” value [1] was 1 (26-59% of disease on untreated plants), the “disease control grading … (BARLEY)” value [2] was 4 and the “disease control grading … (WHEAT)” value [3] was 0 (60-100% of disease on untreated plants). The “disease control grading … (APPLE)” value [4] was 4, the “disease control grading, […] (RICE)” value [5] was 0 (60-100% of disease on untreated plants) and the “disease control grading, […] (VINE)” value [6] was 2 (6-25% of disease on untreated plants). For the same compound, the “disease control grading, PH[…] (TOMATO)” value [7] was 0 (60-100% of disease on untreated plants).

`CO/C=C(/C(=O)OC)c1cccnc1Oc1ccc(F)cc1F` [Compound 87] was tested, and the “disease control grading … (PEANUT)” value [1] was 4, the “disease control grading … (BARLEY)” value [2] was 4 and the “disease control grading … (WHEAT)” value [3] was 3 (trace-5% of disease on untreated plants). The “disease control grading … (APPLE)” value [4] was 4, the “disease control grading, […] (RICE)” value [5] was 4 and the “disease control grading, […] (VINE)” value [6] was 0 (60-100% of disease on untreated plants). The “disease control grading, PH[…] (TOMATO)” value [7] was 0 (60-100% of disease on untreated plants).

`CO/C=C(/C(=O)OC)c1cccnc1Oc1cc(F)cc(F)c1` [Compound 88] was tested, and the “disease control grading … (PEANUT)” value [1] was 3 (trace-5% of disease on untreated plants), the “disease control grading … (BARLEY)” value [2] was 4 and the “disease control grading … (WHEAT)” value [3] was 4. The “disease control grading … (APPLE)” value [4] was 4, the “disease control grading, […] (RICE)” value [5] was 2 (6-25% of disease on untreated plants) and the “disease control grading, […] (VINE)” value [6] was 4. For the same compound, the “disease control grading, PH[…] (TOMATO)” value [7] was 4.

For `CO/C=C(/C(=O)OC)c1ccccn1` [Compound 106], the “disease control grading … (PEANUT)” value [1] was 0 (60-100% of disease on untreated plants), the “disease control grading … (BARLEY)” value [2] was 4 and the “disease control grading … (WHEAT)” value [3] was 0 (60-100% of disease on untreated plants). The “disease control grading … (APPLE)” value [4] was 0 (60-100% of disease on untreated plants), the “disease control grading, […] (RICE)” value [5] was 0 (60-100% of disease on untreated plants) and the “disease control grading, […] (VINE)” value [6] was 0 (60-100% of disease on untreated plants).
